Assays:
[1] = tested on: Lewis rats; assay: Rat Collagen-induced Arthritis (rCIA) Model; type: in vivo; conditions: paw swelling, bovine type II collagen-induced arthritis, oral gavage 0.3 mg/kg BID from day 8, day of peak disease, typically day 17
Description: Two-month-old, female Lewis rats (Charles River Labs) were anesthetized with 3-5% isoflurane and arthritis was induced by intradermal injection of 0.3 ml (100 μl at three different sites) of an emulsion containing 1.5 mg/ml of bovine type II collagen (CII) (Elastin Products Co. Inc. Owensville, Mo.) in Incomplete Freund's Adjuvant (IFA) (Difco Laboratories, Detroit, Mich.) on day 0 at the base of the tail using a 30 gauge needle. A second injection was given on day 6. Control rats were injected with an equal amount of IFA only.
Test compounds of Formula I are formulated by diluting concentrated ethanol stock solutions with phosphate buffered saline (PBS) and dosed by oral gavage at 0.3 mg/kg twice a day (BID). Dosing was initiated on day 8 and continued to the end of the study, generally day 19 or day 20. Control animals were administered PBS alone.
The volume of both hind paws were measured using a water displacement plethysmometer (Ugo Basile, Biological Research Apparatus, Italy), and the onset of arthritis was indicated by increased paw volume, which appears approximately on day 11 post injection. Both paw volumes and body weights are measured throughout the study every 2-3 days. Nineteen to twenty-one days after CII injection, the rats are euthanized with CO2. Blood is collected by cardiac puncture and serum is saved. Both hind ankles are collected in 10% buffered formalin and saved (they can later be processed for histology).
Percent inhibition values were measured as follows. First, the magnitude of disease effect was calculated by taking the difference in paw swelling between control animals and animals that had not been administered CII (“untreated effect”). Then, the difference is paw swelling between the compound-treated animals and the animals that had not been administered CII was determined (“treated effect”). The difference between the untreated effect and the treated effect is then divided by the […] and multiplied by 100 to arrive at percent inhibition. Percent inhibition reported was from day of “peak” or maximal disease (manifested by maximum paw swelling), typically day 17.

[2] = tested on: Balb/c mice; assay: Murine Delayed-type-Hypersensitivity (DTH) Model; type: in vivo; conditions: Mus musculus, iv; ear swelling after DNFB challenge; 0.3 mg/kg intravenously once daily; measured within 24 to 48 hours after ear challenge
Description: Balb/c mice were sensitized by application of 20 μl of 0.5% of DNFB dissolved in acetone/olive oil to their footpads on day 0 and day 1. On day 5 animals are dosed intravenously with 0.3 mg/kg of test compound (or a negative control). Fifteen minutes later, 10 μl of 0.8% of DNFB dissolved in acetone/olive oil is topically applied externally on the right ear of the animal. As a control, the left ear is treated the same way with vehicle alone (acetone/olive oil).
The compounds (controls and test) are administered once daily until the completion of the study.
Within 24 to 48 hours after ear challenge, animals are anesthetized with isoflurane and the ear swelling is measured using a micrometer. The micrometer calipers are closed around the top portion of the each external ear until resistance from the ear is felt. Usually, the peak of the ear swelling happens around 48 hours after challenge.
Percent inhibition is determined in a similar manner as described for the CII model, above.

SMILES | inhibition in vivo at 0.3 mg/kg [1] [%] | inhibition in vivo at 0.3 mg/kg [2] [%]
C#CC[C@@H](O)/C=C/C=C/C#CCCCCC(=O)O [Compound 301] | 11 | 15
C#CCC/C=C/C=C/C#C[C@@H](O)CCCC(=O)O [Compound 302] | 37 | 24
O=C(O)CCC[C@H](O)C#C/C=C/C=C/[C@H](O)Cc1ccc(F)cc1 [Compound 303] | 0 | 21
O=C(O)CCC[C@H](O)C#C/C=C/C=C/[C@H](O)CC1CC1 [Compound 304] | 28 | 20
O=C(O)CCC[C@H](O)C#C/C=C/C=C/[C@H](O)CC#Cc1ccc(F)cc1 [Compound 306] |  | 16
O=C(O)CCC[C@H](O)C#C/C=C/C=C/[C@H](O)CC#Cc1ccc(Cl)c(Cl)c1 [Compound 314] | 27 | 28
O=C(O)CC[C@H](O)C#C/C=C/C=C/[C@H](O)CC1CC1 [Compound 315] | 7 | 32
C#CC[C@@H](O)/C=C/C=C/C#CC(F)(F)CCCC(=O)O [Compound 320] | 18 | 35
C#CC[C@@H](O)/C=C/C=C/[C@@H]1C[C@@H]1[C@@H](O)CCCC(=O)O [Compound 321] | 10 | 32
C#CC[C@@H](O)/C=C/C=C/C#C[C@H](O)CCCC(=O)O [Compound 323] | 38 | 46

From patent publication US20110245528A1, “THERAPEUTIC COMPOUNDS” (priority 2008, published 2011)
